According to patent publication US7045528B2, “Benzofused heterozryl amide derivatives of thienopyridines useful as therapeutic agents, pharmaceutical compositions including the same, and methods for their use” (Agouron Pharmaceuticals, Inc., priority 2002, dated 2006):
Where two headings read alike, the source gives them in different places.

How the values were obtained:
[1] = biological target: T1, unphosphorylated VEGF-R2Δ50 (FLVK) (Homo sapiens, UniProt P35968, DEL940-989/E990V); test: VEGF-R2 coupled spectrophotometric assay, unphosphorylated VEGF-R2Δ50 (FLVK); type: biochemical; conditions: for inhibition at 0.05 µM: 50 nM compound, read-out: FLVK (% inh @ 50 nM); for inhibition at 0.05 µM / Ki: unphosphorylated VEGF-R2Δ50; for inhibition at 0.1 µM: percent inhibition at 100 nM, library amides from Example 101 (R101), crude mixtures in DMSO, read-out: FLVK (% @ 100 nM)
T1 construct: VEGF-R2Δ50 contains residues 806–939 and 990–1171; made in house; host or cells: baculovirus/insect cell system
T1 sequence (P35968 with tags, fused parts or gaps DEL940-989/E990V limits assumed): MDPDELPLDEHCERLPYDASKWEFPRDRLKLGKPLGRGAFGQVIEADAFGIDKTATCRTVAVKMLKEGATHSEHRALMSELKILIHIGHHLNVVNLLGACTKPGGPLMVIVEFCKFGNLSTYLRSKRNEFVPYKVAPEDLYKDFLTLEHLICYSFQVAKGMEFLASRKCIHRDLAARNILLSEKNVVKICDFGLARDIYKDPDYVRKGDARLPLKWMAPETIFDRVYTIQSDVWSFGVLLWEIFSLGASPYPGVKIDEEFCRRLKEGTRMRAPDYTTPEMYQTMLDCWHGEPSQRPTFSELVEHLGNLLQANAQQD
From the text: VEGF-R2 Construct for Assay:
This construct determines the ability of a test compound to inhibit tyrosine kinase activity. A construct (VEGF-R2Δ50) of the cytosolic domain of human vascular endothelial growth factor receptor 2 (VEGF-R2) lacking the 50 central residues of the 68 residues of the kinase insert domain was expressed in a baculovirus/insect cell system. Of the 1356 residues of full-length VEGF-R2, VEGF-R2Δ50 contains residues 806–939 and 990–1171, and also one point mutation (E990V) within the kinase insert domain relative to wild-type VEGF-R2. Autophosphorylation of the purified construct was performed by incubation of the enzyme at a concentration of 4 μM in the presence of 3 mM ATP and 40 mM MgCl2 in 100 mM HEPES, pH 7.5, containing 5% glycerol and 5 mM DTT, at 4° C. for 2 h. […] See Parast et al., Biochemistry, 37, 16788–16801 (1998).
Coupled Spectrophotometric (FLVK-P) Assay
The production of ADP from ATP that accompanies phosphoryl transfer was coupled to oxidation of NADH using phosphoenolpyruvate (PEP) and a system having pyruvate kinase (PK) and lactic dehydrogenase (LDH). The oxidation of NADH was monitored by following the decrease of absorbance at 340 nm (e340=6.22 cm^−1 mM^−1) using a Beckman DU 650 spectrophotometer. Assay conditions for phosphorylated VEGF-R2Δ50 (indicated as FLVK-P in the tables below) were the following: 1 mM PEP; 250 μM NADH; 50 units of LDH/mL; 20 units of PK/mL; 5 mM DTT; 5.1 mM poly(E4Y1); 1 mM ATP; and 25 mM MgCl2 in 200 mM HEPES, pH 7.5. Assay conditions for unphosphorylated VEGF-R2Δ50 (indicated as FLVK in the tables) were the following: 1 mM PEP; 250 μM NADH; 50 units of LDH/mL; 20 units of PK/mL; 5 mM DTT; 20 mM poly(E4Y1); 3 mM ATP; and 60 mM MgCl2 and 2 mM MnCl2 in 200 mM HEPES, pH 7.5. Assays were initiated with 5 to 40 nM of enzyme. Ki values were determined by measuring enzyme activity in the presence of varying concentrations of test compounds. […] The binding inhibitions were fitted to equation as described by Morrison. The data were analyzed using Enzyme Kinetic and Kaleidagraph software.

PDGFRβ = biological target: T2, PDGFRβ (Homo sapiens, UniProt P09619); test: PAE-PDGFRβ phosphorylation in PAE-PDGFRB cells assay; type: cell-based
T2 construct: expressed in transfected cells; host or cells: porcine aorta endothelial (PAE)-PDGFRβ cells
T2 sequence (P09619 33-1106): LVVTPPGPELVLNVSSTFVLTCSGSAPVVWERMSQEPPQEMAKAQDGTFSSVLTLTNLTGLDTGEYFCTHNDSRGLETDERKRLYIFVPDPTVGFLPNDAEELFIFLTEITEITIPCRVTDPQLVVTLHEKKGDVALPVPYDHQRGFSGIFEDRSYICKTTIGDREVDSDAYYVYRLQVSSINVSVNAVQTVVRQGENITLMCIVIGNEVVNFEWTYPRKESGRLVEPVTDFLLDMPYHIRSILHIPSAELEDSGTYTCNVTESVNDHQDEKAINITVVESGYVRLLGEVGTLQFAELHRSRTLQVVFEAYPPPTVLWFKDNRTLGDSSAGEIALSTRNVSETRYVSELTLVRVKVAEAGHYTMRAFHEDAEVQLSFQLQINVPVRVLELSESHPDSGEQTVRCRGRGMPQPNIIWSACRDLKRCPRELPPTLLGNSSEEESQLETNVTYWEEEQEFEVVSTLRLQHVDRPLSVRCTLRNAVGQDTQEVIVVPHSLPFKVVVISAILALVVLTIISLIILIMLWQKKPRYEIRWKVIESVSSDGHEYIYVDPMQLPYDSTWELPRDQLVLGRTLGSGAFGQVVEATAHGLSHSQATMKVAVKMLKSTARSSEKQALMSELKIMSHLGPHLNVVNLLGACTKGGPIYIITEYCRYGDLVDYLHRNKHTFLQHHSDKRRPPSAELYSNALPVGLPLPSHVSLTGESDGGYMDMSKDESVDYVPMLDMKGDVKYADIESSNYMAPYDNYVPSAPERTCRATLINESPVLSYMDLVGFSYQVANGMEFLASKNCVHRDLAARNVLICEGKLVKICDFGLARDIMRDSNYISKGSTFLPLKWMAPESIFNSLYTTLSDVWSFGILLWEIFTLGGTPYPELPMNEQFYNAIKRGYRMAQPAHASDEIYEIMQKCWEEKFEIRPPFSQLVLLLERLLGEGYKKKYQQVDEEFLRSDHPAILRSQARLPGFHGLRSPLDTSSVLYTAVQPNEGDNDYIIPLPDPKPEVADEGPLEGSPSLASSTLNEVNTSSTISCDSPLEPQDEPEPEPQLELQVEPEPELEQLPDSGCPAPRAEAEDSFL
Description: PAE-PDGFRβ Phosphorylation in PAE-PDGFRB Cells Assay
This assay determines the ability of a test compound to inhibit the autophosphorylation of PDGFRβ in porcine aorta endothelial (PAE)-PDGFRβ cells. PAE cells that overexpress human PDGFRβ were used in this assay. The cells were cultured in Ham's F12 media supplemented with 10% fetal bovine serum (FBS) and 400 ug/ml G418. Twenty thousands cells were seeded in each well of a 96-well plate in 50 μL of growth media and allowed to attach for 6 hours at 37° C. Cells were then exposed to the starvation media (Ham's F12 media supplemented with 0.1% FBS) for 16 hours. After the starvation period was over, 10 μL of test agent in 5% DMSO in starvation media were added to the test wells and 10 μL of the vehicle (5% DMSO in starvation media) were added into the control wells. The final DMSO concentration in each well was 0.5%. Plates were incubated at 37° C. for 1 hour and the cells were then stimulated with 1 μg/mL PDGF-BB (R & D System) in the presence of 2 mM Na3VO4 for 8 minutes. The cells were washed once with 1 mm Na3VO4 in HBSS and lysed by adding 50 μL per well of lysis buffer. One hundred μL of dilution buffer were then added to each well and the diluted cell lysate was transferred to a 96-well goat ant-rabbit coated plate (Pierce), which was pre-coated with Rabbit anti Human PDGFRβ antibody (Santa Cruz). The plates were incubated at room temperature for 2 hours and washed seven times with 1% Tween 20 in PBS. HRP-PY20 (Santa Cruz) was diluted and added to the plate for a 30-minute incubation. Plates were then washed again and TMB peroxidase substrate (Kirkegaard & Perry) was added for a 10-minute incubation. One hundred μL of 0.09 N H2SO4 was added into each well of the 96-well plate to stop the reaction. Phosphorylation status was assessed by spectrophotometer reading at 450 nm. IC50 values were calculated by curve fitting using a four-parameter analysis.

[2] = PAE cells overexpressing human PDGFRβ, PDGF-BB stimulated, read-out: PAE PDGFR autophos IC50 (nM) AVG
[3] = library amides from Example 101 (R101), crude mixtures in DMSO, read-out: PAE PDGFR autophos IC50

SMILES	inhibition at 0.05 µM [1] [%]	Ki [1] [nM]	IC50 (PDGFRβ; [2]) [nM]	IC50 (PDGFRβ; [3]) [nM]	inhibition at 0.1 µM [1] [%]	IC50 (PDGFRβ) [nM]
COC[C@@H]1CCCN1C(=O)c1cc2nccc(Oc3ccc4c(C(=O)NCCCO)c(C)sc4c3)c2s1 [Example 122, 6-[(2-{[(2S)-2-(Methoxymethyl)pyrrolidin-1-yl]carbonyl}thieno[3,2-b]pyridin-7-yl)oxy]-2-methylbenzo[b]thiophene-3-carboxylic acid 3-hydroxypropylamide]	58	5.14	351			
Cc1oc2cc(Oc3ccnc4ccsc34)ccc2c1C(=O)NCCN1CCOCC1 [drawing 310]				50		
COC(=O)[C@H](Cc1c[nH]cn1)NC(=O)c1c(C)oc2cc(Oc3ccnc4ccsc34)ccc12				49	52	
CO[C@@H]1CCN(C(=O)c2cc3nccc(Oc4ccc5c(C(=O)NCCO)c(C)oc5c4)c3s2)C1 [Example 93, 6-[2-(3-Methoxy-pyrrolidine-1-carbonyl)-thieno[3,2-b]pyridin-7-yloxy]-2-methyl-benzofuran-3-carboxylic acid 2-hydroxyethyl amide]	84	2.72	44			
Cc1oc2cc(Oc3ccnc4ccsc34)ccc2c1C(=O)Nc1cc[nH]n1				> 100	91	
CCCCNC(=O)c1c(C)oc2cc(Oc3ccnc4ccsc34)ccc12 [Example 105, 2-Methyl-6-[Thieno(3,2-b)pyridin-7-yloxy]benzofuran-3-carboxylic acid butyl amide]	61	8.37	127			
CCc1c(C(=O)NC)c2ccc(Oc3ccnc4cc(-c5nccn5C)sc34)cc2n1C [Example 74, 2-Ethyl-1-methyl-6-[2-(1-methyl-1H-imidazol-2-yl)-thieno[3,2-b]pyridin-7-yloxy]-1H-indole-3-carboxylic acid methylamide]	43	12.7	313			
CNC(=O)c1c(C)n(C)c2cc(Oc3ccnc4cc(C(=O)N5CC[C@@H](N(C)C(=O)OC(C)(C)C)C5)sc34)ccc12 [Example 34, tert-Butyl-(3R)-1-{[7-({1,2-dimethyl-3-[(methylamino)carbonyl]-1H-indol-6-yl}oxy)thieno[3,2-b]pyridin-2-yl]carbonyl}pyrrolidin-3-yl(methyl)carbamate]	45	11.4	31.3			
CNC(=O)c1c(C)n(C)c2cc(Oc3ccnc4cc(C(=O)N5CC[C@@H](N(C)C)C5)sc34)ccc12 [Example 27, 6-[(2-{[(3R)-3-(Dimethylamino)pyrrolidin-1-yl]carbonyl}thieno[3,2-b]pyridin-7-yl)oxy]-N,1,2-trimethyl-1H-indole-3-carboxamide]	13	96	205			
COC(=O)C1CN1C(=O)c1c(C)oc2cc(Oc3ccnc4ccsc34)ccc12 (centres unmarked)				> 100	51	
Cc1oc2cc(Oc3ccnc4ccsc34)ccc2c1C(=O)NCCN1CCOCC1 [Example 103, 2-Methyl-6-[thieno[3,2-b]pyridin-7-yloxy]benzofuran-3-carboxylic acid (2-morpholin-4-yl-ethyl)-amide]	52	7	203			
Cc1sc2cc(Oc3ccnc4ccsc34)ccc2c1C(=O)NCCN1CCOCC1 [Example 133, 2-Methyl 6-(thieno[3,2-b]pyridin-7-yloxy)benzo[b]thiophene-3-carboxylic acid (2-morpholin-4-yl)ethylamide]	40	5.9	468			
CNC(=O)c1c(C)n(C)c2cc(Oc3ccnc4cc(C(=O)N5CC[C@@H](NC)C5)sc34)ccc12 [Example 35, 1,2-Dimethyl-6-[2-(3-methylamino-pyrrolidine-1-carbonyl)-thieno[3,2-b]pyridin-7-yloxy]-1H-indole-3-carboxylic acid methylamide]	23	35.2				70
CNC(=O)c1c(C)oc2cc(Oc3ccnc4ccsc34)ccc12 [Example 99, 6-[Thieno(3,2-b)pyridin-7-yloxy]-2-methyl-benzofuran-3-carboxylic acid methyl amide]	66	4.68	563			
CNC(=O)c1c(C)n(C)c2cc(Oc3ccnc4cc(-c5ncccn5)sc34)ccc12 [Example 50, 1,2-Dimethyl-6-(2-pyrimidin-2-yl-thieno[3,2-b]pyridin-7-yloxy)-1H-indole-3-carboxylic acid methylamide]	36	36.5				
Cc1oc2cc(Oc3ccnc4ccsc34)ccc2c1C(=O)NCCOC(C)C [Example 109, 2-Methyl-6-(thieno[3,2-b]pyridin-7-yloxy)-benzofuran-3-carboxylic acid (2-isopropoxy-ethyl)-amide]	82					
CNC(=O)c1cn(C)c2cc(Oc3ccnc4cc(C(=O)N5CC[C@@H](O)C5)sc34)ccc12 [Example 21, 6-{2-[3-(R)-hydroxy-pyrrolidine-1-carbonyl]thieno[3,2-b]pyridin-7-yloxy}-1-methyl-1H-indole-3-carboxylic acid methylamide]	43	13.1				
CNC(=O)c1c(C)n(C)c2cc(Oc3ccnc4cc(C(=O)N(C)CCCN(C)C)sc34)ccc12 [Example 32, N-[3-(Dimethylamino)propyl]-7-({1,2-dimethyl-3-[(methylamino)carbonyl]-1H-indol-6-yl}oxy)-N-methylthieno[3,2-b]pyridine-2-carboxamide]	22	39.4	29.2			
Cc1c(C(=O)NCC(C)C)c2ccc(Oc3ccnc4cc(-c5nccs5)sc34)cc2n1C [Example 67, 1,2-Dimethyl-4(2-thiazol-2-yl-thieno[3,2-b]pyridin-7-yloxy)-1 indole-3-carboxylic acid isobutyl-amide]	58	12.5				
